In patent US7517874B2 (priority 2007, dated 2009):
Read-outs that look alike come from different tables or passages of the source.

What was measured:
[1] = molecular target: human CB1 receptor (hCB1) (Homo sapiens, UniProt P21554); test: cell-based; format: cell-based
How it was run: (§1)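 Agonism or inverse agonism was assessed as change in intracellular cAMP in CHO-K1 cells expressing human CB1 or rat CB2 (genomic DNA, pcDNA3.1).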

rat CB2 receptor (rCB2) = molecular target: T1, rat CB2 receptor (rCB2) (Rattus norvegicus, UniProt Q9QZN9); test: cell-based; format: cell-based; settings: for +/− RCB2: agonist or inverse agonist at rCB2
T1 sequence (Q9QZN9 1-360): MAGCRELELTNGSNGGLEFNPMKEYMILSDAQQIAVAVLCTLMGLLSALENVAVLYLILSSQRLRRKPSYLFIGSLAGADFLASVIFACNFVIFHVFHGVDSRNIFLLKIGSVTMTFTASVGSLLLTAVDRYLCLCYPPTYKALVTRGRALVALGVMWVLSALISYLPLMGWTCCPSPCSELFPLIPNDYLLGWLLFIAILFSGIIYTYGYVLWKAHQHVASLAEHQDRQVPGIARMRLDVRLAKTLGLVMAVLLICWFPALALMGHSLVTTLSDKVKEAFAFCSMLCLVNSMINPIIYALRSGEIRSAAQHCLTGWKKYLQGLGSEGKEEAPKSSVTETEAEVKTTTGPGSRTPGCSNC
How it was run: as §1

[2] = groups >100 nM-10 μM and >10 μM, cAMP, CHO-K1 hCB1, read-out: EC50 HCB1
[3] = groups >100 nM-10 μM and >10 μM, cAMP, CHO-K1 rCB2, read-out: EC50 RCB2

Sequence of human CB1 receptor (hCB1) (P21554 whole entry): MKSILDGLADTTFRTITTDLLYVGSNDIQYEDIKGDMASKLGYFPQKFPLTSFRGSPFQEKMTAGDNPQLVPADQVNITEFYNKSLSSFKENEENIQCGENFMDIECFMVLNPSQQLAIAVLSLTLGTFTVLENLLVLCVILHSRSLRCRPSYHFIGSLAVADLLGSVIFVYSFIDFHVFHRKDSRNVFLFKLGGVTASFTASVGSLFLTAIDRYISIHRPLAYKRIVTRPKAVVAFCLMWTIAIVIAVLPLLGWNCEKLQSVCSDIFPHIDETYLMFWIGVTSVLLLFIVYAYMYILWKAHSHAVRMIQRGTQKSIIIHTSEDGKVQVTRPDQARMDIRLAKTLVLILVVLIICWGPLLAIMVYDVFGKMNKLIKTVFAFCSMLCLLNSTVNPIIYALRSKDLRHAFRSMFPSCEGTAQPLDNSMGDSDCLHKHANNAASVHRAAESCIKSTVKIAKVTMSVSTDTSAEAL

| Compound | EC50 [1] | EC50 (rat CB2 receptor (rCB2)) | +/− RCB2 (rat CB2 receptor (rCB2)) | other results |
| --- | --- | --- | --- | --- |
| CN1CCn2c(-c3ccccc3)nc(C(=O)NCCCO)c2C1 [Compound 229, N-(3-hydroxypropyl)-7-methyl-3-phenyl-5,6,7,8-tetrahydroimidazo[1,5-a]pyrazine-1-carboxamide] | > 10000 nM | > 10000 nM |  |  |
| CN1CCn2c(-c3ccccc3)nc(C(=O)NC(C)(C)CO)c2C1 [Compound 230, N-(1-hydroxy-2-methylpropan-2-yl)-7-methyl-3-phenyl-5,6,7,8-tetrahydroimidazo[1,5-a]pyrazine-1-carboxamide] |  |  |  | EC50 [1, 2]: > 10000 nM; EC50 (rat CB2 receptor (rCB2); [3]): > 10000 nM |
| CC(CO)NC(=O)c1nc(-c2ccccc2)n2c1CN(C)CC2 (stereo not shown) [Compound 231, N-(1-hydroxypropan-2-yl)-7-methyl-3-phenyl-5,6,7,8-tetrahydroimidazo[1,5-a]pyrazine-1-carboxamide] |  |  |  | EC50 [1, 2]: > 10000 nM; EC50 (rat CB2 receptor (rCB2); [3]): > 10000 nM |
| CCC(CO)NC(=O)c1nc(-c2ccccc2)n2c1CN(C)CC2 (stereo not shown) [Compound 232, N-(1-hydroxybutan-2-yl)-7-methyl-3-phenyl-5,6,7,8-tetrahydroimidazo[1,5-a]pyrazine-1-carboxamide] | > 10000 nM | > 10000 nM |  |  |
| CCCC(CO)NC(=O)c1nc(-c2ccccc2)n2c1CN(C)CC2 (stereo not shown) [Compound 233, N-(1-hydroxypentan-2-yl)-7-methyl-3-phenyl-5,6,7,8-tetrahydroimidazo[1,5-a]pyrazine-1-carboxamide] | > 10000 nM | > 10000 nM |  |  |
| CN1CCn2c(-c3ccccc3)nc(C(=O)NCC3OCCO3)c2C1 [Compound 234, N-((1,3-dioxolan-2-yl)methyl)-7-methyl-3-phenyl-5,6,7,8-tetrahydroimidazo[1,5-a]pyrazine-1-carboxamide] | > 10000 nM |  | + |  |
| CN1CCn2c(-c3ccccc3)nc(C(=O)NC3(CO)CCCC3)c2C1 [Compound 235, N-(1-(hydroxymethyl)cyclopentyl)-7-methyl-3-phenyl-5,6,7,8-tetrahydroimidazo[1,5-a]pyrazine-1-carboxamide] | > 10000 nM | > 10000 nM |  |  |
| CN1CCn2c(-c3ccccc3)nc(C(=O)NCC3CCOCC3)c2C1 [Compound 236, 7-methyl-3-phenyl-N-((tetrahydro-2H-pyran-4-yl)methyl)-5,6,7,8-tetrahydroimidazo[1,5-a]pyrazine-1-carboxamide] | > 10000 nM | > 10000 nM |  |  |
| Cc1cnc(CNC(=O)c2nc(-c3ccccc3)n3c2CN(C)CC3)cn1 [Compound 237, 7-methyl-N-((5-methylpyrazin-2-yl)methyl)-3-phenyl-5,6,7,8-tetrahydroimidazo[1,5-a]pyrazine-1-carboxamide] | > 10000 nM | > 10000 nM |  |  |
| CNC(=O)[C@@H](NC(=O)c1nc(C2=CCCC2)n2c1CN(C)CC2)C(C)(C)C [Compound 238, (S)-3-cyclopentenyl-N-(3,3-dimethyl-1-(methylamino)-1-oxobutan-2-yl)-7-methyl-5,6,7,8-tetrahydroimidazo[1,5-a]pyrazine-1-carboxamide] |  | > 10000 nM |  | +/− HCB1 ([1]; agonist or inverse agonist at hCB1): + |
| CNC(=O)[C@@H](NC(=O)c1nc(-c2cncnc2)n2c1CN(C)CC2)C(C)(C)C [Compound 239, (S)-N-(3,3-dimethyl-1-(methylamino)-1-oxobutan-2-yl)-7-methyl-3-(pyrimidin-5-yl)-5,6,7,8-tetrahydroimidazo[1,5-a]pyrazine-1-carboxamide] |  |  |  | EC50 [1, 2]: > 10000 nM; EC50 (rat CB2 receptor (rCB2); [3]): > 10000 nM |
| CNC(=O)[C@@H](NC(=O)c1nc(-c2ccc(C)c(F)c2)n2c1CN(C)CC2)C(C)(C)C [Compound 240, (S)-N-(3,3-dimethyl-1-(methylamino)-1-oxobutan-2-yl)-3-(3-fluoro-4-methylphenyl)-7-methyl-5,6,7,8-tetrahydroimidazo[1,5-a]pyrazine-1-carboxamide] | > 10000 nM |  | − |  |
| CNC(=O)[C@@H](NC(=O)c1nc(-c2ccc(Cl)cc2F)n2c1CN(C)CC2)C(C)(C)C [Compound 241, (S)-3-(4-chloro-2-fluorophenyl)-N-(3,3-dimethyl-1-(methylamino)-1-oxobutan-2-yl)-7-methyl-5,6,7,8-tetrahydroimidazo[1,5-a]pyrazine-1-carboxamide] | > 10000 nM |  | − |  |
| CNC(=O)[C@@H](NC(=O)c1nc(-c2cccc3cccnc23)n2c1CN(C)CC2)C(C)(C)C [Compound 242, (S)-N-(3,3-dimethyl-1-(methylamino)-1-oxobutan-2-yl)-7-methyl-3-(quinolin-8-yl)-5,6,7,8-tetrahydroimidazo[1,5-a]pyrazine-1-carboxamide] | > 10000 nM |  | − |  |
| C/C=C/c1nc(C(=O)N[C@H](C(=O)NC)C(C)(C)C)c2n1CCN(C)C2 [Compound 243, (S,E)-N-(3,3-dimethyl-1-(methylamino)-1-oxobutan-2-yl)-7-methyl-3-(prop-1-enyl)-5,6,7,8-tetrahydroimidazo[1,5-a]pyrazine-1-carboxamide] | > 10000 nM |  | + |  |
| CNC(=O)[C@@H](NC(=O)c1nc(-c2cccc(F)c2)n2c1CN(C)CC2)C(C)(C)C [Compound 244, (S)-N-(3,3-dimethyl-1-(methylamino)-1-oxobutan-2-yl)-3-(3-fluorophenyl)-7-methyl-5,6,7,8-tetrahydroimidazo[1,5-a]pyrazine-1-carboxamide] | > 10000 nM |  | + |  |
| CNC(=O)[C@@H](NC(=O)c1nc(-c2cc(C(F)(F)F)ccc2F)n2c1CN(C)CC2)C(C)(C)C [Compound 245, (S)-N-(3,3-dimethyl-1-(methylamino)-1-oxobutan-2-yl)-3-(2-fluoro-5-(trifluoromethyl)phenyl)-7-methyl-5,6,7,8-tetrahydroimidazo[1,5-a]pyrazine-1-carboxamide] | > 10000 nM |  | − |  |
| CNC(=O)[C@@H](NC(=O)c1nc(-c2cc(Cl)ccc2F)n2c1CN(C)CC2)C(C)(C)C [Compound 246, (S)-3-(5-chloro-2-fluorophenyl)-N-(3,3-dimethyl-1-(methylamino)-1-oxobutan-2-yl)-7-methyl-5,6,7,8-tetrahydroimidazo[1,5-a]pyrazine-1-carboxamide] | > 10000 nM |  | − |  |
| CNC(=O)[C@@H](NC(=O)c1nc(-c2ccc(F)cc2)n2c1CN(C)CC2)C(C)(C)C [Compound 247, (S)-N-(3,3-dimethyl-1-(methylamino)-1-oxobutan-2-yl)-3-(4-fluorophenyl)-7-methyl-5,6,7,8-tetrahydroimidazo[1,5-a]pyrazine-1-carboxamide] | > 10000 nM |  | + |  |
| CNC(=O)[C@@H](NC(=O)c1nc(-c2ccc(F)cc2F)n2c1CN(C)CC2)C(C)(C)C [Compound 248, (S)-3-(2,4-difluorophenyl)-N-(3,3-dimethyl-1-(methylamino)-1-oxobutan-2-yl)-7-methyl-5,6,7,8-tetrahydroimidazo[1,5-a]pyrazine-1-carboxamide] | > 10000 nM | > 10000 nM |  |  |
| CNC(=O)[C@@H](NC(=O)c1nc(-c2ccc(C)cc2F)n2c1CN(C)CC2)C(C)(C)C [Compound 249, (S)-N-(3,3-dimethyl-1-(methylamino)-1-oxobutan-2-yl)-3-(2-fluoro-4-methylphenyl)-7-methyl-5,6,7,8-tetrahydroimidazo[1,5-a]pyrazine-1-carboxamide] | > 10000 nM |  | − |  |
| CNC(=O)[C@@H](NC(=O)c1nc(-c2cc(F)ccc2F)n2c1CN(C)CC2)C(C)(C)C [Compound 250, (S)-3-(2,5-difluorophenyl)-N-(3,3-dimethyl-1-(methylamino)-1-oxobutan-2-yl)-7-methyl-5,6,7,8-tetrahydroimidazo[1,5-a]pyrazine-1-carboxamide] | > 10000 nM | > 10000 nM |  |  |
| CNC(=O)[C@@H](NC(=O)c1nc(-c2cc(C)ccc2F)n2c1CN(C)CC2)C(C)(C)C [Compound 251, (S)-N-(3,3-dimethyl-1-(methylamino)-1-oxobutan-2-yl)-3-(2-fluoro-5-methylphenyl)-7-methyl-5,6,7,8-tetrahydroimidazo[1,5-a]pyrazine-1-carboxamide] | > 10000 nM |  | − |  |
| CNC(=O)[C@@H](NC(=O)c1nc(-c2cccnc2)n2c1CN(C)CC2)C(C)(C)C [Compound 252, (S)-N-(3,3-dimethyl-1-(methylamino)-1-oxobutan-2-yl)-7-methyl-3-(pyridin-3-yl)-5,6,7,8-tetrahydroimidazo[1,5-a]pyrazine-1-carboxamide] | > 10000 nM |  | + |  |
| CNC(=O)[C@@H](NC(=O)c1nc(-c2ccccc2Cl)n2c1CN(C)CC2)C(C)(C)C [Compound 253, (S)-3-(2-chlorophenyl)-N-(3,3-dimethyl-1-(methylamino)-1-oxobutan-2-yl)-7-methyl-5,6,7,8-tetrahydroimidazo[1,5-a]pyrazine-1-carboxamide] | > 10000 nM |  | + |  |
| CNC(=O)[C@@H](NC(=O)c1nc(-c2ccc(C#N)cc2)n2c1CN(C)CC2)C(C)(C)C [Compound 254, (S)-3-(4-cyanophenyl)-N-(3,3-dimethyl-1-(methylamino)-1-oxobutan-2-yl)-7-methyl-5,6,7,8-tetrahydroimidazo[1,5-a]pyrazine-1-carboxamide] | > 10000 nM |  | − |  |
